Values of other authors, collected in patent US12462914B2, “Systems and methods for dispensing a statin medication over the counter” (ASTRAZENECA UK LIMITED, priority 2016, dated 2025).

Conditions: co-administration of warfarin with a single oral dose of atorvastatin

CC(C)c1c(C(=O)Nc2ccccc2)c(-c2ccccc2)c(-c2ccc(F)cc2)n1CC[C@@H](O)C[C@@H](O)CC(=O)O [atorvastatin]
effect on the pharmacokinetics of atorvastatin: no significant effect
